Measured values reported in patent US20100298141A1, “SUBSTITUTED PYRIDINE N-OXIDE HERBICIDES” (E. I. DU PONT DE NEMOURS AND COMPANY, priority 2007, published 2010).

How the values were obtained:
yellow nutsedge = assay: Test C pre-/postemergence test; format: in vivo, Cyperus esculentus; conditions: for Plant response rating, Nutsedge, Yellow: 31 g ai/ha, scale 0 to 100 (0 no effect, 100 complete control)
Procedure, shortened: (§1)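 Seeds were planted and treated preemergence with test chemical in a non-phytotoxic solvent mixture containing surfactant. Postemergence applications of the same formulation went onto plants 2 to 18 cm tall (1- to 4-leaf stage). A dash marks no test result.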

pigweed = assay: Test C pre-/postemergence test; format: in vivo, Amaranthus retroflexus; conditions: for Plant response rating, Pigweed: 31 g ai/ha, scale 0 to 100 (0 no effect, 100 complete control)
Procedure, shortened: as §1

woolly cupgrass = assay: Test C pre-/postemergence test; format: in vivo, Eriochloa villosa; conditions: for Plant response rating, Cupgrass, Woolly: 31 g ai/ha, scale 0 to 100 (0 no effect, 100 complete control)
Procedure, shortened: as §1

soybean = assay: Test C pre-/postemergence test; format: in vivo, Glycine max; conditions: for Plant response rating, Soybean: 31 g ai/ha, scale 0 to 100 (0 no effect, 100 complete control)
Procedure, shortened: as §1

green foxtail = assay: Test C pre-/postemergence test; format: in vivo, Setaria viridis; conditions: for Plant response rating, Foxtail, Green: 31 g ai/ha, scale 0 to 100 (0 no effect, 100 complete control)
Procedure, shortened: as §1

cocklebur = assay: Test C pre-/postemergence test; format: in vivo, Xanthium strumarium; conditions: for Plant response rating, Cocklebur: 31 g ai/ha, scale 0 to 100 (0 no effect, 100 complete control)
Procedure, shortened: as §1

Italian ryegrass = assay: Test C pre-/postemergence test; format: in vivo, Lolium multiflorum; conditions: for Plant response rating, Ryegrass, Italian: 31 g ai/ha, scale 0 to 100 (0 no effect, 100 complete control)
Procedure, shortened: as §1

wheat = assay: Test C pre-/postemergence test; format: in vivo, Triticum aestivum; conditions: for Plant response rating, Wheat: 31 g ai/ha, scale 0 to 100 (0 no effect, 100 complete control)
Procedure, shortened: as §1

kochia = assay: Test C pre-/postemergence test; format: in vivo, Kochia scoparia; conditions: for Plant response rating, Kochia: 31 g ai/ha, scale 0 to 100 (0 no effect, 100 complete control)
Procedure, shortened: as §1

[1] = test system: common (oilseed) sunflower; assay: Test C pre-/postemergence test; format: in vivo, Helianthus annuus; conditions: for Plant response rating, Sunflower: 31 g ai/ha, scale 0 to 100 (0 no effect, 100 complete control)
Procedure, shortened: as §1

corn = assay: Test C pre-/postemergence test; format: in vivo, Zea mays; conditions: for Plant response rating, Corn: 31 g ai/ha, scale 0 to 100 (0 no effect, 100 complete control)
Procedure, shortened: as §1

blackgrass = assay: Test C pre-/postemergence test; format: in vivo, Alopecurus myosuroides; conditions: for Plant response rating, Blackgrass: 31 g ai/ha, scale 0 to 100 (0 no effect, 100 complete control)
Procedure, shortened: as §1

morningglory [2] = assay: Test C pre-/postemergence test; format: in vivo, Ipomoea coccinea; conditions: for Plant response rating, Morningglory: 31 g ai/ha, scale 0 to 100 (0 no effect, 100 complete control)
Procedure, shortened: as §1

barnyardgrass = assay: Test A pre-/postemergence greenhouse test; format: in vivo, Echinochloa crus-galli; conditions: for Plant response rating, Barnyardgrass: 0 to 100 scale where 0 is no effect and 100 is complete control; for Barnyardgrass plant response rating: 0 to 100 scale
Procedure, shortened: (§2)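 Visual injury ratings against untreated controls, taken roughly ten days after treatment in greenhouse. Plants were sprayed postemergence at one- to two-leaf stage (2–10 cm tall); at the same time, seeded loam/sand soil received a directed preemergence spray. Formulation: non-phytotoxic solvent mixture with surfactant.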

umbrella sedge = assay: Test C flooded paddy test; format: in vivo, Cyperus difformis; conditions: Flood
Procedure, shortened: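 Under a constant 3 cm flood, test compounds went directly into the paddy water. Following 13 to 15 days of greenhouse growth, treated species and controls were compared by eye.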

morningglory [3] = assay: Test A pre-/postemergence greenhouse test; format: in vivo, Ipomoea spp.; conditions: for Plant response rating, Morningglory: 0 to 100 scale where 0 is no effect and 100 is complete control; for Morningglory plant response rating: 0 to 100 scale
Procedure, shortened: as §2

crabgrass = assay: Test C pre-/postemergence test; format: in vivo, Digitaria sanguinalis; conditions: for Plant response rating, Crabgrass, Large: 31 g ai/ha, scale 0 to 100 (0 no effect, 100 complete control)
Procedure, shortened: as §1

[4] = 62 g ai/ha, Preemergence, scale 0 to 100
[5] = 125 g ai/ha, preemergence, scale 0 (no effect) to 100 (complete control)
[6] = preemergence, 250 g ai/ha, scale 0 (no effect) to 100 (complete control)
[7] = Postemergence, 500 g ai/ha, 0 is no effect, 100 is complete control
[8] = Preemergence, 125 g ai/ha, 0 no effect, 100 complete control
[9] = 250 g ai/ha, scale 0 to 100, 0 no effect, 100 complete control, 13 to 15 days

Compound: Cn1nc(C(F)(F)F)c(C[S+]([O-])c2ccc(F)c[n+]2[O-])c1Cl (stereo not drawn) [Compound 54]
- Nutsedge, Yellow plant response rating (yellow nutsedge; [4]): 65
- Nutsedge, Yellow plant response rating (yellow nutsedge; [5]): 100
- Plant response rating, Nutsedge, Yellow (yellow nutsedge; Preemergence): 0
- Nutsedge, Yellow plant response rating (yellow nutsedge; [6]): 100
- Pigweed plant response rating (pigweed; [4]): 100
- Pigweed plant response rating (pigweed; [5]): 100
- Plant response rating, Pigweed (pigweed; Preemergence): 0
- Pigweed plant response rating (pigweed; [6]): 100
- Cupgrass, Woolly plant response rating (woolly cupgrass; [4]): 85
- Cupgrass, Woolly plant response rating (woolly cupgrass; [5]): 95
- Plant response rating, Cupgrass, Woolly (woolly cupgrass; Preemergence): 85
- Cupgrass, Woolly plant response rating (woolly cupgrass; [6]): 98
- Plant response rating, Soybean (soybean; Preemergence): 0
- Soybean plant response rating (soybean; [6]): 60
- Foxtail, Green plant response rating (green foxtail; [4]): 95
- Foxtail, Green plant response rating (green foxtail; [5]): 95
- Plant response rating, Foxtail, Green (green foxtail; Preemergence): 60
- Foxtail, Green plant response rating (green foxtail; [6]): 95
- Cocklebur plant response rating (cocklebur; [4]): 0
- Cocklebur plant response rating (cocklebur; [5]): 0
- Plant response rating, Cocklebur (cocklebur; Preemergence): 0
- Cocklebur plant response rating (cocklebur; [6]): 0
- Ryegrass, Italian plant response rating (Italian ryegrass; [4]): 45
- Ryegrass, Italian plant response rating (Italian ryegrass; [5]): 70
- Plant response rating, Ryegrass, Italian (Italian ryegrass; Preemergence): 0
- Ryegrass, Italian plant response rating (Italian ryegrass; [6]): 98
- Wheat plant response rating (wheat; [5]): 40
- Plant response rating, Wheat (wheat; Preemergence): 0
- Kochia plant response rating (kochia; [4]): 100
- Kochia plant response rating (kochia; [5]): 100
- Plant response rating, Kochia (kochia; Preemergence): 50
- Kochia plant response rating (kochia; [6]): 100
- Sunflower plant response rating [1, 5]: 0
- Plant response rating, Sunflower ([1]; Preemergence): 0
- Sunflower plant response rating [1, 6]: 0
- Corn plant response rating (corn; [4]): 80
- Corn plant response rating (corn; [5]): 85
- Plant response rating, Corn (corn; Preemergence): 55
- Corn plant response rating (corn; [6]): 98
- Blackgrass plant response rating (blackgrass; [4]): 50
- Plant response rating, Blackgrass (blackgrass; Preemergence): 0
- Blackgrass plant response rating (blackgrass; [6]): 85
- Morningglory plant response rating (morningglory [2]; [4]): 100
- Morningglory plant response rating (morningglory [2]; [5]): 100
- Plant response rating, Morningglory (morningglory [2]; Preemergence): 100
- Morningglory plant response rating (morningglory [2]; [6]): 100
- Plant response rating, Barnyardgrass (barnyardgrass; Postemergence, 125 g ai/ha): 70
- Barnyardgrass plant response rating (barnyardgrass; [7]): 80
- Barnyardgrass plant response rating (barnyardgrass; [8]): 80
- Plant response rating, Barnyardgrass (barnyardgrass; Preemergence, 500 g ai/ha): 90
- Plant response rating, Sedge, Umbrella (umbrella sedge; 31 g ai/ha, scale 0 to 100 (0 no effect, 100 complete control)): 0
- Plant response rating, Sedge, Umbrella (umbrella sedge; 125 g ai/ha, scale 0 to 100, 0 no effect, 100 complete control, 13 to 15 days): 60
- Plant response rating, Sedge, Umbrella (umbrella sedge; [9]): 100
- Plant response rating, Morningglory (morningglory [3]; Postemergence, 125 g ai/ha): 60
- Morningglory plant response rating (morningglory [3]; [7]): 90
- Morningglory plant response rating (morningglory [3]; [8]): 10
- Plant response rating, Morningglory (morningglory [3]; Preemergence, 500 g ai/ha): 80
- Crabgrass, Large plant response rating (crabgrass; [4]): 100
- Crabgrass, Large plant response rating (crabgrass; [5]): 100
- Plant response rating, Crabgrass, Large (crabgrass; Preemergence): 85
- Crabgrass, Large plant response rating (crabgrass; [6]): 100

Compound: CC(Oc1c(C[S+]([O-])c2cccc[n+]2[O-])c(C(F)(F)F)nn1C)C(F)(F)F (stereo not drawn) [Compound 77]
- Nutsedge, Yellow plant response rating (yellow nutsedge; [4]): 100
- Nutsedge, Yellow plant response rating (yellow nutsedge; [5]): 100
- Plant response rating, Nutsedge, Yellow (yellow nutsedge; Preemergence): 50
- Nutsedge, Yellow plant response rating (yellow nutsedge; [6]): 100
- Pigweed plant response rating (pigweed; [4]): 100
- Pigweed plant response rating (pigweed; [5]): 100
- Plant response rating, Pigweed (pigweed; Preemergence): 100
- Pigweed plant response rating (pigweed; [6]): 100
- Cupgrass, Woolly plant response rating (woolly cupgrass; [4]): 98
- Cupgrass, Woolly plant response rating (woolly cupgrass; [5]): 100
- Plant response rating, Cupgrass, Woolly (woolly cupgrass; Preemergence): 80
- Cupgrass, Woolly plant response rating (woolly cupgrass; [6]): 100
- Soybean plant response rating (soybean; [4]): 45
- Soybean plant response rating (soybean; [5]): 70
- Plant response rating, Soybean (soybean; Preemergence): 40
- Soybean plant response rating (soybean; [6]): 100
- Foxtail, Green plant response rating (green foxtail; [4]): 85
- Foxtail, Green plant response rating (green foxtail; [5]): 100
- Plant response rating, Foxtail, Green (green foxtail; Preemergence): 85
- Foxtail, Green plant response rating (green foxtail; [6]): 100
- Cocklebur plant response rating (cocklebur; [5]): 0
- Plant response rating, Cocklebur (cocklebur; Preemergence): 0
- Cocklebur plant response rating (cocklebur; [6]): 0
- Ryegrass, Italian plant response rating (Italian ryegrass; [4]): 98
- Ryegrass, Italian plant response rating (Italian ryegrass; [5]): 100
- Plant response rating, Ryegrass, Italian (Italian ryegrass; Preemergence): 80
- Ryegrass, Italian plant response rating (Italian ryegrass; [6]): 100
- Wheat plant response rating (wheat; [4]): 40
- Wheat plant response rating (wheat; [5]): 80
- Plant response rating, Wheat (wheat; Preemergence): 20
- Wheat plant response rating (wheat; [6]): 95
- Kochia plant response rating (kochia; [4]): 100
- Kochia plant response rating (kochia; [5]): 100
- Plant response rating, Kochia (kochia; Preemergence): 100
- Kochia plant response rating (kochia; [6]): 100
- Sunflower plant response rating [1, 4]: 0
- Sunflower plant response rating [1, 5]: 80
- Plant response rating, Sunflower ([1]; Preemergence): 0
- Sunflower plant response rating [1, 6]: 98
- Corn plant response rating (corn; [4]): 95
- Corn plant response rating (corn; [5]): 100
- Plant response rating, Corn (corn; Preemergence): 40
- Corn plant response rating (corn; [6]): 100
- Blackgrass plant response rating (blackgrass; [4]): 100
- Blackgrass plant response rating (blackgrass; [5]): 100
- Plant response rating, Blackgrass (blackgrass; Preemergence): 100
- Blackgrass plant response rating (blackgrass; [6]): 100
- Morningglory plant response rating (morningglory [2]; [4]): 65
- Morningglory plant response rating (morningglory [2]; [5]): 100
- Plant response rating, Morningglory (morningglory [2]; Preemergence): 60
- Morningglory plant response rating (morningglory [2]; [6]): 100
- Plant response rating, Barnyardgrass (barnyardgrass; Postemergence, 125 g ai/ha): 80
- Barnyardgrass plant response rating (barnyardgrass; [7]): 90
- Barnyardgrass plant response rating (barnyardgrass; [8]): 90
- Plant response rating, Barnyardgrass (barnyardgrass; Preemergence, 500 g ai/ha): 100
- Plant response rating, Sedge, Umbrella (umbrella sedge; 62 g ai/ha, scale 0 to 100 (0 no effect, 100 complete control)): 100
- Plant response rating, Sedge, Umbrella (umbrella sedge; [9]): 100
- Plant response rating, Morningglory (morningglory [3]; Postemergence, 125 g ai/ha): 70
- Morningglory plant response rating (morningglory [3]; [7]): 90
- Morningglory plant response rating (morningglory [3]; [8]): 70
- Plant response rating, Morningglory (morningglory [3]; Preemergence, 500 g ai/ha): 100
- Crabgrass, Large plant response rating (crabgrass; [4]): 100
- Crabgrass, Large plant response rating (crabgrass; [5]): 100
- Plant response rating, Crabgrass, Large (crabgrass; Preemergence): 80
- Crabgrass, Large plant response rating (crabgrass; [6]): 100
